Activity calls are given as the source filed them. No cut-off for these calls is given here.
Tests used:
Pseudomonas aeruginosa [1] = assay: Synergistic antibacterial activity against wild type Pseudomonas aeruginosa PAO1 assessed as potentiation of doxycycline-induced antibacterial effect incubated for 18 hrs by checkerboard assay; assay type: functional, organism-based
Pseudomonas aeruginosa [2] = assay: Synergistic antibacterial activity against wild type Pseudomonas aeruginosa PAO1 assessed as potentiation of levofloxacin-induced antibacterial effect incubated for 18 hrs by checkerboard assay; assay type: functional, organism-based
Pseudomonas aeruginosa [3] = assay: Synergistic antibacterial activity against wild type Pseudomonas aeruginosa PAO1 assessed as potentiation of fosfomycin-induced antibacterial effect incubated for 18 hrs by checkerboard assay; assay type: functional, organism-based
Pseudomonas aeruginosa [4] = assay: Synergistic antibacterial activity against wild type Pseudomonas aeruginosa PAO1 assessed as potentiation of piperacillin-induced antibacterial effect incubated for 18 hrs by checkerboard assay; assay type: functional, organism-based
Pseudomonas aeruginosa [5] = assay: Synergistic antibacterial activity against wild type Pseudomonas aeruginosa PAO1 assessed as potentiation of novobiocin-induced antibacterial effect incubated for 18 hrs by checkerboard assay; assay type: functional, organism-based
Pseudomonas aeruginosa [6] = assay: Synergistic antibacterial activity against wild type Pseudomonas aeruginosa PAO1 assessed as potentiation of tobramycin-induced antibacterial effect at <= 7.1 uM incubated for 18 hrs by checkerboard assay; assay type: functional, organism-based
Pseudomonas aeruginosa [7] = assay: Synergistic antibacterial activity against wild type Pseudomonas aeruginosa PAO1 assessed as potentiation of vancomycin-induced antibacterial effect at <=7.1 uM incubated for 18 hrs by checkerboard assay; assay type: functional, organism-based
Pseudomonas aeruginosa [8] = assay: Synergistic antibacterial activity against wild type Pseudomonas aeruginosa PAO1 assessed as potentiation of colistin-induced antibacterial effect at <=7.1 uM incubated for 18 hrs by checkerboard assay; assay type: functional, organism-based
Pseudomonas aeruginosa [9] = assay: Synergistic antibacterial activity against wild type Pseudomonas aeruginosa PAO1 assessed as potentiation of rifampicin-induced antibacterial effect incubated for 18 hrs by checkerboard assay relative to rifampicin alone; assay type: functional
Pseudomonas aeruginosa [10] = assay: Synergistic antibacterial activity against wild type Pseudomonas aeruginosa PAO1 assessed as potentiation of doxycycline-induced antibacterial effect incubated for 18 hrs by checkerboard assay relative to doxycycline alone; assay type: functional
Pseudomonas aeruginosa [11] = assay: Synergistic antibacterial activity against wild type Pseudomonas aeruginosa PAO1 assessed as potentiation of linezolid-induced antibacterial effect incubated for 18 hrs by checkerboard assay relative to linezolid alone; assay type: functional
Pseudomonas aeruginosa [12] = assay: Synergistic antibacterial activity against wild type Pseudomonas aeruginosa PAO1 assessed as potentiation of moxifloxacin-induced antibacterial effect incubated for 18 hrs by checkerboard assay relative to moxifloxacin alone; assay type: functional
Pseudomonas aeruginosa [13] = assay: Synergistic antibacterial activity against wild type Pseudomonas aeruginosa PAO1 assessed as potentiation of aztreonam-induced antibacterial effect incubated for 18 hrs by checkerboard assay relative to aztreonam alone; assay type: functional
Pseudomonas aeruginosa [14] = assay: Synergistic antibacterial activity against wild type Pseudomonas aeruginosa PAO1 assessed as potentiation of clindamycin-induced antibacterial effect incubated for 18 hrs by checkerboard assay relative to clindamycin alone; assay type: functional
Pseudomonas aeruginosa [15] = assay: Potentiation of novobiocin-induced antibacterial activity against wild type Pseudomonas aeruginosa PAO1 assessed as novobiocin MIC at <= 7.1 uM incubated for 18 hrs by CLSI protocol based assay (reference value: 512 ug/ml); assay type: functional; details: PAO1, 18 h
Pseudomonas aeruginosa [16] = assay: Potentiation of novobiocin-induced antibacterial activity against carbapenem-resistant Pseudomonas aeruginosa 259-96918 clinical isolate assessed as novobiocin MIC at <= 7.1 uM incubated for 18 hrs by CLSI protocol based assay (reference value: 512 ug/ml); assay type: functional; details: 259-96918, 18 h
Pseudomonas aeruginosa [17] = assay: Potentiation of novobiocin-induced antibacterial activity against carbapenem-resistant Pseudomonas aeruginosa 262-101856 clinical isolate assessed as novobiocin MIC at <= 7.1 uM incubated for 18 hrs by CLSI protocol based assay (reference value: 512 ug/ml); assay type: functional; details: 262-101856, 18 h
Escherichia coli [18] = assay: Potentiation of novobiocin-induced antibacterial activity against colistin-resistant Escherichia coli 94393 clinical isolate harboring mcr-1 gene assessed as novobiocin MIC at <= 7.1 uM incubated for 18 hrs by CLSI protocol based assay (reference value: 128 ug/ml); assay type: functional; details: Escherichia coli, 94393, 18 h
Pseudomonas aeruginosa [19] = assay: Antibacterial activity against Pseudomonas aeruginosa 260-97103 clinical isolate incubated for 18 hrs by CLSI protocol based assay; assay type: functional; details: 260-97103, 18 h
Pseudomonas aeruginosa [20] = assay: Antibacterial activity against carbapenem-resistant Pseudomonas aeruginosa 262-101856 clinical isolate incubated for 18 hrs by CLSI protocol based assay; assay type: functional; details: 262-101856, 18 h
Acinetobacter baumannii [21] = assay: Antibacterial activity against Acinetobacter baumannii 027 clinical incubated for 18 hrs by CLSI protocol based assay; assay type: functional; details: Acinetobacter baumannii, 027, 18 h
Acinetobacter baumannii [22] = assay: Antibacterial activity against Acinetobacter baumannii LAC-4 clinical isolate incubated for 18 hrs by CLSI protocol based assay; assay type: functional; details: LAC-4, 18 h
Escherichia coli [23] = assay: Antibacterial activity against wild type Escherichia coli ATCC 25922 incubated for 18 hrs by CLSI protocol based assay; assay type: functional; details: ATCC 25922, 18 h
Escherichia coli [24] = assay: Antibacterial activity against colistin-resistant Escherichia coli 94393 clinical isolate harboring mcr-1 gene incubated for 18 hrs by CLSI protocol based assay; assay type: functional; details: Escherichia coli, 94393, 18 h
Klebsiella pneumoniae [25] = assay: Antibacterial activity against colistin-resistant Klebsiella pneumoniae 113250 clinical isolate incubated for 18 hrs by CLSI protocol based assay; assay type: functional; details: Klebsiella pneumoniae, 113250, 18 h
Pseudomonas aeruginosa [26] = assay: Potentiation of novobiocin-induced antibacterial activity against carbapenem-resistant Pseudomonas aeruginosa 259-96918 clinical isolate assessed as fold reduction in novobiocin MIC incubated for 18 hrs by CLSI protocol based assay relative to novobiocin MIC; assay type: functional
Pseudomonas aeruginosa [27] = assay: Potentiation of novobiocin-induced antibacterial activity against carbapenem and colistin-resistant Pseudomonas aeruginosa 91433 clinical isolate assessed as fold reduction in novobiocin MIC incubated for 18 hrs by CLSI protocol based assay relative to novobiocin MIC; assay type: functional
Acinetobacter baumannii [28] = assay: Potentiation of novobiocin-induced antibacterial activity against Acinetobacter baumannii 027 clinical isolate assessed as fold reduction in novobiocin MIC incubated for 18 hrs by CLSI protocol based assay relative to novobiocin MIC; assay type: functional
Escherichia coli [29] = assay: Potentiation of novobiocin-induced antibacterial activity against colistin-resistant Escherichia coli 94393 clinical isolate harboring mcr-1 gene assessed as fold reduction in novobiocin MIC incubated for 18 hrs by CLSI protocol based assay relative to novobiocin MIC; assay type: functional
Klebsiella pneumoniae [30] = assay: Potentiation of novobiocin-induced antibacterial activity against colistin-resistant Klebsiella pneumoniae 113254 clinical isolate assessed as fold reduction in novobiocin MIC incubated for 18 hrs by CLSI protocol based assay relative to novobiocin MIC; assay type: functional
Enterobacter cloacae = assay: Potentiation of novobiocin-induced antibacterial activity against colistin-resistant Enterobacter cloacae 121187 clinical solate assessed as fold reduction in novobiocin MIC incubated for 18 hrs by CLSI protocol based assay relative to novobiocin MIC; assay type: functional
Pseudomonas aeruginosa [31] = assay: Antibacterial activity against mexAB-oprM/mexCD-oprJ/mexEF-oprN/mexJK/mexXY/opmH mutant deficient Pseudomonas aeruginosa PAO750 incubated for 18 hrs by CLSI protocol based assay; assay type: functional; details: PAO750, 18 h
Pseudomonas aeruginosa [32] = assay: Bactericidal activity against Pseudomonas aeruginosa PAO1 assessed as log reduction in colony forming units per ml at 7.1 uM in LB media after 24 hrs in presence of 50.4 uM novobiocin by time-kill assay; assay type: functional
Acinetobacter baumannii [33] = assay: Antibacterial activity against wild type Acinetobacter baumannii ATCC 17978 assessed as resistant development at 7.1 uM measured after 3 days of passaging in presence of novobiocin by microbroth dilution method relative to control; assay type: functional
Acinetobacter baumannii [34] = assay: Antibacterial activity against wild type Acinetobacter baumannii ATCC 17978 by checkerboard assay; assay type: functional

Q: What does the source list for `NC[C@H]1O[C@H](O[C@H]2[C@H](OCCCCc3cn(CCCCO[C@@H]4[C@@H](O[C@H]5O[C@H](CO)[C@@H](O)[C@H](N)[C@H]5O)[C@H](N)C[C@H](N)[C@H]4O[C@H]4O[C@H](CN)[C@@H](O)C[C@H]4N)nn3)[C@@H](O[C@H]3O[C@H](CO)[C@@H](O)[C@H](N)[C@H]3O)[C@H](N)C[C@@H]2N)[C@H](N)C[C@@H]1O.O=C(O)C(F)(F)F.O=C(O)C(F)(F)F.O=C(O)C(F)(F)F.O=C(O)C(F)(F)F.O=C(O)C(F)(F)F.O=C(O)C(F)(F)F.O=C(O)C(F)(F)F.O=C(O)C(F)(F)F.O=C(O)C(F)(F)F.O=C(O)C(F)(F)F`?
A: Activity (Pseudomonas aeruginosa [1]): Dose-dependent effect; Activity (Pseudomonas aeruginosa [2]): Dose-dependent effect; Activity (Pseudomonas aeruginosa [3]): Dose-dependent effect; Activity (Pseudomonas aeruginosa [4]): Dose-dependent effect; Activity (Pseudomonas aeruginosa [5]): Dose-dependent effect; Activity (Pseudomonas aeruginosa [6]): inactive; Activity (Pseudomonas aeruginosa [7]): inactive; Activity (Pseudomonas aeruginosa [8]): inactive; fold change (FC) (Pseudomonas aeruginosa [9]): 4 - 128; fold change (FC) (Pseudomonas aeruginosa [10]): 4 - 128; fold change (FC) (Pseudomonas aeruginosa [11]): 4 - 128; fold change (FC) (Pseudomonas aeruginosa [12]): 4 - 128; fold change (FC) (Pseudomonas aeruginosa [13]): 4 - 128; fold change (FC) (Pseudomonas aeruginosa [14]): 4 - 128; MIC (Pseudomonas aeruginosa [15]): 4 µg/mL; MIC (Pseudomonas aeruginosa [16]): 8 µg/mL; MIC (Pseudomonas aeruginosa [17]): 8 µg/mL; MIC (Escherichia coli [18]): 2 µg/mL; MIC (Pseudomonas aeruginosa [19]): > 128 µg/mL; MIC (Pseudomonas aeruginosa [20]): > 128 µg/mL; MIC (Acinetobacter baumannii [21]): > 128 µg/mL; MIC (Acinetobacter baumannii [22]): > 128 µg/mL; MIC (Escherichia coli [23]): > 128 µg/mL; MIC (Escherichia coli [24]): > 128 µg/mL; MIC (Klebsiella pneumoniae [25]): > 128 µg/mL; Ratio (Pseudomonas aeruginosa [26]): 64; Ratio (Pseudomonas aeruginosa [27]): 16; Ratio (Acinetobacter baumannii [28]): 16; Ratio (Escherichia coli [29]): 64; Ratio (Klebsiella pneumoniae [30]): 16; Ratio (Enterobacter cloacae): 8; MIC (Pseudomonas aeruginosa [31]): > 128 µg/mL; Activity (Pseudomonas aeruginosa [32]): -9.48 CFU/ml; fold change (FC) (Acinetobacter baumannii [33]): 4; MIC (Acinetobacter baumannii [34]): 0.5 µg/mL
